Measured values as given in ChEMBL document CHEMBL1201862, “PubChem BioAssay data set” (2004).
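Grown in 96-well plates, cells were treated for 48 hours with each compound at five concentrations. Insufficient inhibition: endpoint recorded as highest concentration tested. GI50 is the concentration that inhibits growth by half.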 Activity calls are given as the source filed them. Rule as the data show it: active = GI50 up to about 1.1 µM and inactive = higher.

Assays:
Experiment in all cases: NCI anticancer screen, dose series, 48 h
[1] = system: A549
[2] = system: ACHN
[3] = system: HCT-116
[4] = system: Hs-578T
[5] = system: M14
[6] = system: MDA-N
[7] = system: NCI-H226
[8] = system: NCI-H23
[9] = system: NCI-H460
[10] = system: NCI-H522
[11] = system: OVCAR-4
[12] = system: PC-3
[13] = system: SF-268
[14] = system: SK-MEL-5
[15] = system: SK-OV-3
[16] = system: T47D

Measured: GI50

COc1c(/C=C/C=O)cc2c(c1OC)OCO2
inactive: [1] > 100 µM | [2] 27.3 µM | [3] 34 µM | [4] 55.8 µM | [5] 24.2 µM | [6] 24.5 µM | [7] 2.96 µM | [8] 30.4 µM | [9] 14.7 µM | [10] 78.3 µM | [11] 16.6 µM | [12] 34.5 µM | [13] 41.1 µM | [14] 21.1 µM | [15] 60.8 µM | [16] 23.3 µM

COc1ccc2c(c1)CN1C(=N2)CSC1c1cccc(Br)c1 (stereo not given)
inactive: [1] 30.6 µM | [2] 19.8 µM | [3] 19 µM | [4] 53.6 µM | [5] 52.1 µM | [6] 4.1 µM | [7] 4.86 µM | [8] 17.7 µM | [9] 30.1 µM | [10] 22.6 µM | [11] 36.9 µM | [12] 17.7 µM | [13] 52.8 µM | [14] 5.71 µM | [15] > 100 µM | [16] 52.7 µM

Cc1ccc(S(=O)(=O)NC(CO)C(=O)O)cc1 (stereo not given)
inactive: [1] > 100 µM | [2] > 100 µM | [3] > 100 µM | [4] > 100 µM | [5] > 100 µM | [6] > 100 µM | [7] > 100 µM | [8] > 100 µM | [9] > 100 µM | [10] > 100 µM | [11] > 100 µM | [12] > 100 µM | [13] > 100 µM | [14] > 100 µM | [15] > 100 µM | [16] > 100 µM

O=C(NCCN(CCNC(=O)c1cccc(=O)n1O)CCN(CCNC(=O)c1cccc(=O)n1O)CCNC(=O)c1cccc(=O)n1O)c1cccc(=O)n1O
inactive: [1] > 100 µM | [2] > 100 µM | [3] > 100 µM | [4] > 100 µM | [5] > 100 µM | [6] > 100 µM | [7] > 100 µM | [8] > 100 µM | [9] > 100 µM | [10] > 100 µM | [11] > 100 µM | [12] > 100 µM | [13] > 100 µM | [14] > 100 µM | [15] > 100 µM | [16] > 100 µM

Cc1cccc(N(CCC#N)S(=O)(=O)c2ccccc2)c1
inactive: [1] > 100 µM | [2] > 100 µM | [3] > 100 µM | [4] > 100 µM | [5] > 100 µM | [6] > 100 µM | [7] > 100 µM | [8] > 100 µM | [9] > 100 µM | [10] > 100 µM | [11] > 100 µM | [12] > 100 µM | [13] > 100 µM | [14] 69 µM | [15] > 100 µM | [16] > 100 µM
